Measurements published in PubChem BioAssay (NCI).
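All cell lines were grown in 96-well plates and treated with compound for 48 hours. At the TGI there is no net growth.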

Assays:
Test in all cases: NCI tumour cell line growth inhibition, 48 h
PC-3 prostate = test system: PC-3 prostate
NCI-H23 lung = test system: NCI-H23 lung
OVCAR-8 ovarian = test system: OVCAR-8 ovarian
RXF 393 renal = test system: RXF 393 renal
OVCAR-3 ovarian = test system: OVCAR-3 ovarian
EKVX NSCLC = test system: EKVX NSCLC
MALME-3M melanoma = test system: MALME-3M melanoma
NCI-H226 lung = test system: NCI-H226 lung
UO-31 renal = test system: UO-31 renal
HT29 colon = test system: HT29 colon
NCI/ADR-RES ovarian = test system: NCI/ADR-RES ovarian
SK-OV-3 ovarian = test system: SK-OV-3 ovarian
ACHN renal = test system: ACHN renal
NCI-H460 lung = test system: NCI-H460 lung
UACC-257 melanoma = test system: UACC-257 melanoma
HS 578T breast = test system: HS 578T breast
SN12C renal = test system: SN12C renal
SK-MEL-2 melanoma = test system: SK-MEL-2 melanoma
SR leukemia = test system: SR leukemia
MCF7 breast = test system: MCF7 breast
BT-549 breast = test system: BT-549 breast
K-562 leukemia = test system: K-562 leukemia
IGROV1 ovarian = test system: IGROV1 ovarian
U251 CNS = test system: U251 CNS
OVCAR-4 ovarian = test system: OVCAR-4 ovarian
HL-60(TB) leukemia = test system: HL-60(TB) leukemia
KM12 colon = test system: KM12 colon
HOP-92 NSCLC = test system: HOP-92 NSCLC
SNB-19 CNS = test system: SNB-19 CNS
A498 renal = test system: A498 renal
LOX IMVI melanoma = test system: LOX IMVI melanoma
OVCAR-5 ovarian = test system: OVCAR-5 ovarian
786-0 renal = test system: 786-0 renal
COLO 205 colon = test system: COLO 205 colon
SW-620 colon = test system: SW-620 colon
T-47D breast = test system: T-47D breast
HCT-116 colon = test system: HCT-116 colon
TK-10 renal = test system: TK-10 renal
M14 melanoma = test system: M14 melanoma
SK-MEL-5 melanoma = test system: SK-MEL-5 melanoma
NCI-H522 lung = test system: NCI-H522 lung
DU-145 prostate = test system: DU-145 prostate
MDA-N = test system: MDA-N
MDA-MB-231 breast = test system: MDA-MB-231 breast
HOP-62 NSCLC = test system: HOP-62 NSCLC
HCT-15 colon = test system: HCT-15 colon
UACC-62 melanoma = test system: UACC-62 melanoma
CAKI-1 renal = test system: CAKI-1 renal
SF-539 CNS = test system: SF-539 CNS
MDA-MB-435 = test system: MDA-MB-435
CCRF-CEM leukemia = test system: CCRF-CEM leukemia
SK-MEL-28 melanoma = test system: SK-MEL-28 melanoma
A549 NSCLC = test system: A549 NSCLC
SNB-75 CNS = test system: SNB-75 CNS
SF-268 CNS = test system: SF-268 CNS
HCC-2998 colon = test system: HCC-2998 colon
MOLT-4 leukemia = test system: MOLT-4 leukemia
SF-295 CNS = test system: SF-295 CNS
RPMI-8226 leukemia = test system: RPMI-8226 leukemia

Measured: TGI

Cc1cc(C)c2c(n1)S(=O)(=O)N(CCCN1CCN(c3cccc(C(F)(F)F)c3)CC1)c1c-2nn(C)c1C
62 µM: SR leukemia
52 µM: HT29 colon
not listed: RPMI-8226 leukemia
> 100 µM: all other assays above

CCCCCCOP(=O)(OCCCCCC)C(NC(=O)OCC)(C(F)(F)F)C(F)(F)F
90.2 µM: HCT-116 colon
56.6 µM: MDA-MB-231 breast
93.4 µM: HOP-92 NSCLC
66.2 µM: NCI-H226 lung
50.1 µM: BT-549 breast
56.1 µM: LOX IMVI melanoma
52.6 µM: NCI-H522 lung
76.9 µM: RXF 393 renal
32.3 µM: COLO 205 colon
44.1 µM: SK-MEL-5 melanoma
72.2 µM: UO-31 renal | SK-MEL-2 melanoma
not listed: NCI-H23 lung | UACC-257 melanoma | OVCAR-4 ovarian | 786-0 renal | HCC-2998 colon
> 100 µM: all other assays above
